Laboratory results reported in US20250195475A1, “CDK2 INHIBITOR AND PREPARATION METHOD AND USE THEREOF” (INVENTISBIO CO., LTD., priority 2022, published 2025).

Assays:
CDK1/CyclinB1 = CDK1/CyclinB1 (Homo sapiens (Human), UniProt P06493); assay: CDK1 kinase assay (TR-FRET); type: biochemical; conditions: CDK1/CyclinB 7.5 nM, ATP 17 μM
Method: (§1) The purpose of these assays is to evaluate the inhibition of small molecule inhibitors by using TR-FRET assay.
(§2) Compound Preparation. Dissslove the compounds into DMSO solution to make 10 mM DMSO stock. Serially dilute the stock solution from highest concentration down to lowest in DMSO to make the compound stock plate (100× stock plates). To make 5× compound intermediate plate, add 38 μL of assay buffer (50 mM HEPES, pH 7.5, 0.05 mg/mL BSA, 10 mM MgCl2, 1 mM EGTA, 0.01% Tween-20, 2 mM DTT) into each well of the V-bottom plate; then transfer 2 μL of the stock compound solution of each concentration from the compound stock plate (100× stock), and mix well.
(§3) Enzyme reaction. Transfer 2 μL compound from 5× intermediate plate into assay plate, then add 4 μL/well 2.5× Enzyme mix to assay plate, incubation for 10 min at room temperature. For positive control wells, add 4 μL/well assay buffer instead of Enzyme mix. Then add 4 μL/well 2.5× Substrate mix to assay plate, and incubation at 25° C. for 30 min at room temperature. After reaction, 10 μL 2× Detection mix (final 15 mM EDTA, 1× LANCE Detection Buffer, 0.5 nM Detection antibody) was added and incubated for 1 h prior to detection with excitation and emission at 320 and 665 nm (Tecan Spark® TR-FRET mode Tecan).
(§4) Inhibition rate (IR) of the tested compounds was determined by the following formula: IR (%)=(average High control−compound well)/(average High control−average Low control)*100%. Fit the compound IC50 from non-linear regression equation: Y=Bottom+(Top−Bottom)/(1+10^((Log IC50−X)*HillSlope)). X: Log of cpd concentration; Y: Inhibition rate (TR); Top and Bottom: Plateaus in same units as Y, log IC50: same log units as X; HillSlope: Slope factor or Hill slope.

CDK9/CyclinT1 = CDK9/CyclinT1 (Homo sapiens (Human), UniProt P50750); assay: CDK9 kinase assay (TR-FRET); type: biochemical; conditions: CDK9/CyclinT1 1.0 nM, ATP 3.5 μM
Chain of CDK9/CyclinT1 (P50750 whole entry): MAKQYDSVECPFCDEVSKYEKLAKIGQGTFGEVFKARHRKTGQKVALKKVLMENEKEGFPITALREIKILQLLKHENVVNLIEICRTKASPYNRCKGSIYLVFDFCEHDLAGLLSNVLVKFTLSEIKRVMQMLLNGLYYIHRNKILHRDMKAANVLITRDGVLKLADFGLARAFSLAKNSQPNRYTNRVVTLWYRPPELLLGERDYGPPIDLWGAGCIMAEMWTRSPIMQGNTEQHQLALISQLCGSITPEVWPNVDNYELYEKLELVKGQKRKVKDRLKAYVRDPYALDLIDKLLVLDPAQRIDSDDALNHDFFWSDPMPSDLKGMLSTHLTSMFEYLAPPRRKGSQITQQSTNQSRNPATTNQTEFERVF
Chain of CDK9/CyclinT1 (O60563 whole entry partner): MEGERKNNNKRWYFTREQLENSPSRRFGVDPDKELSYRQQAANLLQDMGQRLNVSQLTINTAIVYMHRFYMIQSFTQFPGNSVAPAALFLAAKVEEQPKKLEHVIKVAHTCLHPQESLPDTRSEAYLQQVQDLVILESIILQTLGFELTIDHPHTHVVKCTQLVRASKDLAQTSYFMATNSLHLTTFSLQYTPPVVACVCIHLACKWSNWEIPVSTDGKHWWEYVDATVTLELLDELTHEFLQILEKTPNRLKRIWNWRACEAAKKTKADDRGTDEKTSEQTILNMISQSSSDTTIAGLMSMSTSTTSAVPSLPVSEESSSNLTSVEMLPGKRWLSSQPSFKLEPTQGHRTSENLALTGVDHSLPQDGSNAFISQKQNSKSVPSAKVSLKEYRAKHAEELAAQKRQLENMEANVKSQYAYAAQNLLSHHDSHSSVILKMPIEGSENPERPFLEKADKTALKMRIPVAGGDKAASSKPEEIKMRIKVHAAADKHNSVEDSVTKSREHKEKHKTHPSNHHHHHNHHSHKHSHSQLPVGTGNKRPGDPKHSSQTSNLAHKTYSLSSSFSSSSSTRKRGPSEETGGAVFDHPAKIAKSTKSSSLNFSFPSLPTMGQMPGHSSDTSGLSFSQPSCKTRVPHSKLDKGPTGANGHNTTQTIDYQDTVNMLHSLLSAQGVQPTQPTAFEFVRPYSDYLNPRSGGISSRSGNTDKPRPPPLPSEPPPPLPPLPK
Method: as §1, §2, §3, §4

CDK2/CyclinE1 = CDK2/CyclinE1 (Homo sapiens (Human), UniProt P24941); assay: CDK2 kinase assay (TR-FRET); type: biochemical; conditions: CDK2/CyclinE1 0.5 nM, ATP 50 μM
Procedure, shortened: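 Compounds were preincubated 10 min at room temperature with enzyme in 50 mM HEPES pH 7.5, 10 mM MgCl2, 1 mM EGTA, 2 mM DTT, 0.01% Tween-20, BSA. Substrate reaction ran 30 min at 25 °C, was stopped with EDTA and read by LANCE TR-FRET (ex 320/em 665 nm) after 1 h. IC50 came from a four-parameter fit of % inhibition.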

OVCAR3 cancer cells = assay: OVCAR3 proliferation assay (CellTiter-Glo); type: cell-based; conditions: Homo sapiens, OVCAR-3, 144 h, 6 days incubation, read-out: OVCAR3 CTG IC50
Method: The OVCAR3 cancer cells were cultured at temperature 37° C., 5% CO2 incubator. The cells were routinely subcultured. The cells growing in an exponential growth phase were harvested and counted for plating. Plate 100 μL of cell suspension into the assay plates. Incubate the assay plates at 37° C., 5% CO2, 95% air and 100% relative humidity overnight. The compounds to be tested were dissolved in dimethyl sulfoxide and prepared with a stock concentration of 10 mM. Serially dilute the stock solution from highest concentration down to lowest in DMSO to make the compound stock plate (200× stock plates). Add 0.5 μL of the 200× compound of each well into the cells in assay plates. The final DMSO concentration was 0.5%. Return the assay plate into incubator and incubate for 6 days. The procedures were performed according to the Promega CellTiter-Glo Luminescent Cell Viability Assay Kit to detect cell viability.
as §4, with “(IR);” for “(TR);”, “Y;” for “Y,”

GSK3β = GSK3β (Homo sapiens (Human), UniProt P49841); assay: GSK3β kinase assay (TR-FRET); type: biochemical; conditions: GSK3β 1.0 nM, ATP 8.0 μM
Chain of GSK3β (P49841 whole entry): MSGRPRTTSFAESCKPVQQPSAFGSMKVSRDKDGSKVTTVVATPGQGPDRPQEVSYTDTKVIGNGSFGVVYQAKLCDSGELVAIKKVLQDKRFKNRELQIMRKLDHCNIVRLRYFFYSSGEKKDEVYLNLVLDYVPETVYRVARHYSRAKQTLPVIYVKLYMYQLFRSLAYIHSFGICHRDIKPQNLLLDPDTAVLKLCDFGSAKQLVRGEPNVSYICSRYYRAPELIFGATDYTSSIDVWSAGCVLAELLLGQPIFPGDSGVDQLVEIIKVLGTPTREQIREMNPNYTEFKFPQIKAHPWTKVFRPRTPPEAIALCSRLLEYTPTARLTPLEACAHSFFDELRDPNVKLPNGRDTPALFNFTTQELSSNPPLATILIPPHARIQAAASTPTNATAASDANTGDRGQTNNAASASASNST
Method: as §1, §2, §3, §4

CDK6/CyclinD3 = CDK6/CyclinD3 (Homo sapiens (Human), UniProt Q00534); assay: CDK6 kinase assay (TR-FRET); type: biochemical; conditions: CDK6/CyclinD3 0.50 nM, ATP 140 μM
Chain of CDK6/CyclinD3 (Q00534 whole entry): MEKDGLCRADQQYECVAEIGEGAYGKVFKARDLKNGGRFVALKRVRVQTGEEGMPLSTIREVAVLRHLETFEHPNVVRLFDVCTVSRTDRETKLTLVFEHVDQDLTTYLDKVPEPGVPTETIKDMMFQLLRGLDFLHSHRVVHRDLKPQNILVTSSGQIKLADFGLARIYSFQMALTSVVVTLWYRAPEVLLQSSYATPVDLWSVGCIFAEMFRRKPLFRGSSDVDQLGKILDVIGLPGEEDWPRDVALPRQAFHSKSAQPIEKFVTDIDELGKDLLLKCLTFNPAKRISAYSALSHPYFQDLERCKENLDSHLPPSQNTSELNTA
Chain of CDK6/CyclinD3 (P30281 whole entry partner): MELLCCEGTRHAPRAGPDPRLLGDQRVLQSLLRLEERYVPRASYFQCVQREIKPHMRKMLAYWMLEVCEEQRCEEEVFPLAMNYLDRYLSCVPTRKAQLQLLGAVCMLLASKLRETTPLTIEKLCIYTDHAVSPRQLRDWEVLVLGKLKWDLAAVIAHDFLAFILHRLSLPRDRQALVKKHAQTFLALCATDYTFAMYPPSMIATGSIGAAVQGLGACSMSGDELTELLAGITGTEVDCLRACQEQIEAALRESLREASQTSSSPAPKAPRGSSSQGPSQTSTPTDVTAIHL
Method: as §1, §2, §3, §4

CDK4/CyclinD1 = CDK4/CyclinD1 (Homo sapiens (Human), UniProt P11802); assay: CDK4 kinase assay (TR-FRET); type: biochemical; conditions: CDK4/CyclinD1 0.50 nM, ATP 225 μM
Chain of CDK4/CyclinD1 (P11802 whole entry): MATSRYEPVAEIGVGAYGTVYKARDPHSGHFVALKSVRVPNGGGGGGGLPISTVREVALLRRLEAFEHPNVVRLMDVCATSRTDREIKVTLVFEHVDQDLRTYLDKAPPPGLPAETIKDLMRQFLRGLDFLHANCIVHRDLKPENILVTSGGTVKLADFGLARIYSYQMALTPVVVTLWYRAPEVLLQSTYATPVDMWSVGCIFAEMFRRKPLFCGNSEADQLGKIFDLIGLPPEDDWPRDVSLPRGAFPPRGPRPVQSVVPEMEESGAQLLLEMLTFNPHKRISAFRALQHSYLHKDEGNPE
Chain of CDK4/CyclinD1 (P24385 whole entry partner): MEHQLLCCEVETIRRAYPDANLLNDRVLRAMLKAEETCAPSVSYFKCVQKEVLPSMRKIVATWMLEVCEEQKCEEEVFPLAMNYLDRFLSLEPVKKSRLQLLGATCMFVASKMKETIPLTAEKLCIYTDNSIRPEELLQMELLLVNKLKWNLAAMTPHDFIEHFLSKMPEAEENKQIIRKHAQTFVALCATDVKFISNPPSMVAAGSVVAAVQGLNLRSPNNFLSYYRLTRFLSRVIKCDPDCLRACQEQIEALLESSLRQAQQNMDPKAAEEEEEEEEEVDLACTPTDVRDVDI
Method: as §1, §2, §3, §4

Chain of CDK1/CyclinB1 (P06493 whole entry): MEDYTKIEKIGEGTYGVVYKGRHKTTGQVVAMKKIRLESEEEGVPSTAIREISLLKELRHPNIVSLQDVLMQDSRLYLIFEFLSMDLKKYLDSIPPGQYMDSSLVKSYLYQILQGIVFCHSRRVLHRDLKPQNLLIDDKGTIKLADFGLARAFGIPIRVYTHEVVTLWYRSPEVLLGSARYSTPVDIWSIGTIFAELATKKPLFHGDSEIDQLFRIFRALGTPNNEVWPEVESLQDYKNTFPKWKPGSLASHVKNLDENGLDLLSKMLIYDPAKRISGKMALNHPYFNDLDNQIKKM
Chain of CDK1/CyclinB1 (P14635 whole entry partner): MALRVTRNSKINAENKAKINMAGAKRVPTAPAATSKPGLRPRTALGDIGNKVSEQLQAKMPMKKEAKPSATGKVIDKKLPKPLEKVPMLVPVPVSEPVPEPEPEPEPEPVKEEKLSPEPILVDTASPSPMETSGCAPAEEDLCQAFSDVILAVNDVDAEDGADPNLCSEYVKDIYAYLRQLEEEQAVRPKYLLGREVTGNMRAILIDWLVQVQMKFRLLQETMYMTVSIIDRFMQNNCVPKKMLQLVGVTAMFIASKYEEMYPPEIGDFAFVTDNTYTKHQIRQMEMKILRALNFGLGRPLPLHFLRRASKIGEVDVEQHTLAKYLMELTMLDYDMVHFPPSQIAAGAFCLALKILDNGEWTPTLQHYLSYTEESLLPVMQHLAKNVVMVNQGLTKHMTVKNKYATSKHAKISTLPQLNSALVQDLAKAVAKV

SMILES | IC50 (CDK1/CyclinB1) [µM] | IC50 (CDK9/CyclinT1) [µM] | IC50 (CDK2/CyclinE1) [µM] | IC50 (OVCAR3 cancer cells) [µM] | IC50 (GSK3β) [µM] | IC50 (CDK6/CyclinD3) [µM] | IC50 (CDK4/CyclinD1) [µM]
CC(C)NC(=O)O[C@@H]1CC[C@H](c2cc(NC(=O)C3CC(C)N(S(C)(=O)=O)C3)n[nH]2)C1 (single isomer, unassigned) [Compound 143] | 0.0609 | 1 | 0.0012 |  |  |  | 
C#C[C@H]1C[C@@H]1C(=O)Nc1cc([C@H]2CC[C@@H](OC(=O)NC(C)C)C2)[nH]n1 [Compound 41] |  |  | 0.0009 | 0.193 | 0.572 | 0.254 | 0.306
CC(C)(C)NC(=O)O[C@@H]1CC[C@H](c2cc(NC(=O)[C@@H]3CCN(S(C)(=O)=O)C3)n[nH]2)C1 [Compound 84] |  |  | 0.0016 | 0.074 |  |  | 
CC(C)NC(=O)O[C@@H]1CC[C@H](c2cc(NC(=O)C34CC(C#N)(C3)C4)n[nH]2)C1 [Compound 109] |  |  | 0.0009 | 0.237 |  |  | 
C#C[C@H]1C[C@@H]1C(=O)Nc1cc([C@H]2CC[C@@H](OC(=O)NC3(C)COC3)C2)[nH]n1 [Compound 180] | 0.0694 | 0.21 | 0.0011 |  |  |  | 
CCC(C)(C)NC(=O)O[C@@H]1CO[C@H](c2cc(NC(=O)c3ccnn3C)n[nH]2)C1 [Compound 191] | 0.101 | 0.131 | 0.0012 |  |  |  | 
